Experimental data from the CheMixHub viscosity set.
Where “and” joins values, the source holds several entries; their conditions need not be identical. Equal values may be shown once.

Experiment: xn = mol fraction of the nth substance listed

CN(C)C=O + O
Conditions	viscosity
293.15 K, 101 kPa, x1 = 0.0254	1.471 mPa·s
293.15 K, 101 kPa, x1 = 0.0555	1.784 mPa·s
293.15 K, 101 kPa, x1 = 0.0915	2.173 mPa·s
293.15 K, 101 kPa, x1 = 0.1355	2.435 mPa·s
293.15 K, 101 kPa, x1 = 0.1904	2.755 mPa·s
293.15 K, 101 kPa, x1 = 0.2608	2.969 mPa·s
293.15 K, 101 kPa, x1 = 0.2921	2.981 mPa·s
293.15 K, 101 kPa, x1 = 0.304	3.018 mPa·s
293.15 K, 101 kPa, x1 = 0.3199	2.973 mPa·s
293.15 K, 101 kPa, x1 = 0.3544	2.937 mPa·s
293.15 K, 101 kPa, x1 = 0.4137	2.705 mPa·s
293.15 K, 101 kPa, x1 = 0.4848	2.515 mPa·s
293.15 K, 101 kPa, x1 = 0.5714	2.002 mPa·s
293.15 K, 101 kPa, x1 = 0.6792	1.674 mPa·s
293.15 K, 101 kPa, x1 = 0.8171	1.276 mPa·s
293.15 K, 101 kPa, x2 = 0.1	0.9649 mPa·s and 0.9619 mPa·s
293.15 K, 101 kPa, x2 = 0.2	1.129 mPa·s and 1.125 mPa·s and 1.65 mPa·s
293.15 K, 101 kPa, x2 = 0.3	1.357 mPa·s and 1.351 mPa·s
293.15 K, 101 kPa, x2 = 0.4	1.674 mPa·s and 1.67 mPa·s and 2.25 mPa·s
293.15 K, 101 kPa, x2 = 0.5	2.177 mPa·s and 2.088 mPa·s
293.15 K, 101 kPa, x2 = 0.6	2.564 mPa·s and 2.556 mPa·s
293.15 K, 101 kPa, x2 = 0.7	2.885 mPa·s and 2.875 mPa·s
293.15 K, 101 kPa, x2 = 0.8	2.761 mPa·s and 2.754 mPa·s
293.15 K, 101 kPa, x2 = 0.9	2.019 mPa·s and 2.015 mPa·s
293.15 K, 101 kPa, x2 = 0.92	1.818 mPa·s and 1.813 mPa·s
293.15 K, 101 kPa, x2 = 0.94	1.622 mPa·s and 1.616 mPa·s
293.15 K, 101 kPa, x2 = 0.96	1.408 mPa·s and 1.403 mPa·s
293.15 K, 101 kPa, x2 = 0.98	1.203 mPa·s and 1.2 mPa·s
293.15 K, 101.33 kPa, x1 = 0.0217	1.225 mPa·s
293.15 K, 101.33 kPa, x1 = 0.0466	1.483 mPa·s
293.15 K, 101.33 kPa, x1 = 0.0989	2.011 mPa·s
293.15 K, 101.33 kPa, x1 = 0.1478	2.357 mPa·s
293.15 K, 101.33 kPa, x1 = 0.196	2.65 mPa·s
293.15 K, 101.33 kPa, x1 = 0.2481	2.888 mPa·s
293.15 K, 101.33 kPa, x1 = 0.2859	2.908 mPa·s
293.15 K, 101.33 kPa, x1 = 0.3728	2.707 mPa·s
293.15 K, 101.33 kPa, x1 = 0.4919	2.262 mPa·s
293.15 K, 101.33 kPa, x1 = 0.5936	1.748 mPa·s
293.15 K, 101.33 kPa, x1 = 0.7991	1.184 mPa·s
293.15 K, 101.33 kPa, x1 = 0.8795	1.073 mPa·s
298.15 K, 101 kPa, x2 = 0.1	0.9018 mPa·s and 0.8984 mPa·s
298.15 K, 101 kPa, x2 = 0.3	1.233 mPa·s and 1.232 mPa·s
298.15 K, 101 kPa, x2 = 0.4	1.508 mPa·s and 1.503 mPa·s
298.15 K, 101 kPa, x2 = 0.5	1.853 mPa·s and 1.847 mPa·s
298.15 K, 101 kPa, x2 = 0.6	2.226 mPa·s and 2.225 mPa·s
298.15 K, 101 kPa, x2 = 0.7	2.477 mPa·s and 2.469 mPa·s
298.15 K, 101 kPa, x2 = 0.8	2.345 mPa·s
298.15 K, 101 kPa, x2 = 0.9	1.746 mPa·s and 1.744 mPa·s
298.15 K, 101 kPa, x2 = 0.92	1.583 mPa·s and 1.576 mPa·s
298.15 K, 101 kPa, x2 = 0.94	1.412 mPa·s and 1.408 mPa·s
298.15 K, 101 kPa, x2 = 0.96	1.234 mPa·s
298.15 K, 101 kPa, x2 = 0.98	1.065 mPa·s and 1.063 mPa·s
302.15 K, 101 kPa, x1 = 0.0254	1.266 mPa·s
302.15 K, 101 kPa, x1 = 0.0555	1.535 mPa·s
302.15 K, 101 kPa, x1 = 0.0915	1.856 mPa·s
302.15 K, 101 kPa, x1 = 0.1355	2.071 mPa·s
302.15 K, 101 kPa, x1 = 0.1904	2.333 mPa·s
302.15 K, 101 kPa, x1 = 0.2608	2.542 mPa·s
302.15 K, 101 kPa, x1 = 0.2921	2.58 mPa·s
302.15 K, 101 kPa, x1 = 0.304	2.604 mPa·s
302.15 K, 101 kPa, x1 = 0.3199	2.572 mPa·s
302.15 K, 101 kPa, x1 = 0.3544	2.526 mPa·s
302.15 K, 101 kPa, x1 = 0.4137	2.327 mPa·s
302.15 K, 101 kPa, x1 = 0.4848	2.201 mPa·s
302.15 K, 101 kPa, x1 = 0.5714	1.812 mPa·s
302.15 K, 101 kPa, x1 = 0.6792	1.533 mPa·s
302.15 K, 101 kPa, x1 = 0.8171	1.176 mPa·s
303.15 K, 101 kPa, x2 = 0.1	0.8402 mPa·s and 0.8389 mPa·s
303.15 K, 101 kPa, x2 = 0.2	0.9593 mPa·s and 0.9567 mPa·s
303.15 K, 101 kPa, x2 = 0.3	1.137 mPa·s and 1.122 mPa·s
303.15 K, 101 kPa, x2 = 0.4	1.354 mPa·s and 1.352 mPa·s
303.15 K, 101 kPa, x2 = 0.5	1.641 mPa·s and 1.639 mPa·s
303.15 K, 101 kPa, x2 = 0.6	1.943 mPa·s and 1.939 mPa·s
303.15 K, 101 kPa, x2 = 0.7	2.134 mPa·s and 2.132 mPa·s
303.15 K, 101 kPa, x2 = 0.8	2.026 mPa·s and 2.02 mPa·s
303.15 K, 101 kPa, x2 = 0.9	1.519 mPa·s and 1.516 mPa·s
303.15 K, 101 kPa, x2 = 0.94	1.24 mPa·s and 1.24 mPa·s
303.15 K, 101 kPa, x2 = 0.96	1.093 mPa·s and 1.091 mPa·s
303.15 K, 101 kPa, x2 = 0.98	0.9451 mPa·s and 0.9453 mPa·s
305.15 K, 101 kPa, x1 = 0.0254	1.107 mPa·s
305.15 K, 101 kPa, x1 = 0.0555	1.335 mPa·s
305.15 K, 101 kPa, x1 = 0.0915	1.61 mPa·s
305.15 K, 101 kPa, x1 = 0.1355	1.795 mPa·s
305.15 K, 101 kPa, x1 = 0.1904	2.021 mPa·s
305.15 K, 101 kPa, x1 = 0.2608	2.238 mPa·s
305.15 K, 101 kPa, x1 = 0.2921	2.27 mPa·s
305.15 K, 101 kPa, x1 = 0.304	2.308 mPa·s
305.15 K, 101 kPa, x1 = 0.3199	2.282 mPa·s
305.15 K, 101 kPa, x1 = 0.3544	2.262 mPa·s
305.15 K, 101 kPa, x1 = 0.4137	2.102 mPa·s
305.15 K, 101 kPa, x1 = 0.4848	1.934 mPa·s
305.15 K, 101 kPa, x1 = 0.5714	1.619 mPa·s
305.15 K, 101 kPa, x1 = 0.6792	1.393 mPa·s
305.15 K, 101 kPa, x1 = 0.8171	1.106 mPa·s
308.15 K, 101 kPa, x1 = 0.0254	0.985 mPa·s
308.15 K, 101 kPa, x1 = 0.027	0.9526 mPa·s
308.15 K, 101 kPa, x1 = 0.0555	1.164 mPa·s
308.15 K, 101 kPa, x1 = 0.058	1.163 mPa·s
308.15 K, 101 kPa, x1 = 0.0915	1.428 mPa·s
308.15 K, 101 kPa, x1 = 0.1355	1.583 mPa·s
308.15 K, 101 kPa, x1 = 0.14	1.539 mPa·s
308.15 K, 101 kPa, x1 = 0.1904	1.823 mPa·s
308.15 K, 101 kPa, x1 = 0.2608	1.989 mPa·s
308.15 K, 101 kPa, x1 = 0.2921	1.999 mPa·s
308.15 K, 101 kPa, x1 = 0.304	2.044 mPa·s
308.15 K, 101 kPa, x1 = 0.3199	1.976 mPa·s
308.15 K, 101 kPa, x1 = 0.3544	1.985 mPa·s
308.15 K, 101 kPa, x1 = 0.4137	1.872 mPa·s
308.15 K, 101 kPa, x1 = 0.4848	1.685 mPa·s
308.15 K, 101 kPa, x1 = 0.5714	1.424 mPa·s
308.15 K, 101 kPa, x1 = 0.6792	1.245 mPa·s
308.15 K, 101 kPa, x1 = 0.8171	1.029 mPa·s
308.15 K, 101 kPa, x2 = 0.1	0.7874 mPa·s and 0.7848 mPa·s
308.15 K, 101 kPa, x2 = 0.2	0.8915 mPa·s and 0.8893 mPa·s
308.15 K, 101 kPa, x2 = 0.3	1.036 mPa·s and 1.033 mPa·s
308.15 K, 101 kPa, x2 = 0.4	1.226 mPa·s and 1.224 mPa·s
308.15 K, 101 kPa, x2 = 0.5	1.468 mPa·s and 1.467 mPa·s
308.15 K, 101 kPa, x2 = 0.6	1.707 mPa·s and 1.702 mPa·s
308.15 K, 101 kPa, x2 = 0.7	1.856 mPa·s and 1.856 mPa·s
308.15 K, 101 kPa, x2 = 0.8	1.759 mPa·s and 1.757 mPa·s
308.15 K, 101 kPa, x2 = 0.9	1.335 mPa·s and 1.335 mPa·s
308.15 K, 101 kPa, x2 = 0.92	1.221 mPa·s and 1.22 mPa·s
308.15 K, 101 kPa, x2 = 0.94	1.1 mPa·s and 1.1 mPa·s
308.15 K, 101 kPa, x2 = 0.96	0.9743 mPa·s and 0.9712 mPa·s
308.15 K, 101 kPa, x2 = 0.98	0.8498 mPa·s and 0.8476 mPa·s
313.15 K, 101 kPa, x1 = 0.0254	0.856 mPa·s
313.15 K, 101 kPa, x1 = 0.027	0.8698 mPa·s
313.15 K, 101 kPa, x1 = 0.0555	1.011 mPa·s
313.15 K, 101 kPa, x1 = 0.058	1.067 mPa·s
313.15 K, 101 kPa, x1 = 0.0915	1.284 mPa·s
313.15 K, 101 kPa, x1 = 0.1355	1.433 mPa·s
313.15 K, 101 kPa, x1 = 0.14	1.392 mPa·s
313.15 K, 101.33 kPa, x1 = 0.0217	0.7737 mPa·s
313.15 K, 101.33 kPa, x1 = 0.0466	0.9108 mPa·s
313.15 K, 101.33 kPa, x1 = 0.0989	1.188 mPa·s
313.15 K, 101.33 kPa, x1 = 0.1478	1.404 mPa·s
313.15 K, 101.33 kPa, x1 = 0.2481	1.713 mPa·s
313.15 K, 101.33 kPa, x1 = 0.2859	1.729 mPa·s
313.15 K, 101.33 kPa, x1 = 0.3728	1.586 mPa·s
313.15 K, 101.33 kPa, x1 = 0.4919	1.351 mPa·s
313.15 K, 101.33 kPa, x1 = 0.5936	1.177 mPa·s
313.15 K, 101.33 kPa, x1 = 0.6889	1.005 mPa·s
313.15 K, 101.33 kPa, x1 = 0.7991	0.8768 mPa·s
313.15 K, 101.33 kPa, x1 = 0.8795	0.8096 mPa·s
318.15 K, 101 kPa, x1 = 0.027	0.796 mPa·s
318.15 K, 101 kPa, x1 = 0.058	0.9746 mPa·s
318.15 K, 101 kPa, x1 = 0.14	1.24 mPa·s
323.15 K, 101 kPa, x1 = 0.027	0.7318 mPa·s
323.15 K, 101 kPa, x1 = 0.058	0.8939 mPa·s
323.15 K, 101 kPa, x1 = 0.14	1.096 mPa·s
